These results are taken from patent US20090143279A1 (priority 2007, published 2009).

One experiment concerns nuOXPHOS transcripts. Format: cell-based, mouse.
Another experiment relates to cytochrome c. Format: cell-based, mouse.
For a further experiment, the system named is reactive oxygen species. Format: cell-based, mouse.
Experiment [1] concerns mitochondrial membrane potential. Format: cell-based, mouse.
The test system of experiment [2] is cellular dehydrogenase activity.
In another experiment the test system is OXPHOS gene expression. Format: cell-based, mouse.
A further experiment deals with mtOXPHOS transcripts. Format: cell-based, mouse.
The mark [3] stands for this setting: Conc 20 μM, normalized score vs mock-treated (DMSO) wells.
Setting [4] is: composite Z-score vs DMSO, Conc 20 μM.
The mark [5] stands for this setting: normalized composite Z-score vs mock-treated (DMSO) wells, Conc 20 μM.
[6] abbreviates: composite Z-score vs mock-treated (DMSO) wells, concentration of each compound in μM.

Where two headings read alike, the source gives them in different places.

Turning to `CCC[C@H]1CC2=C(C[C@@H](CC)CC3=C1C(=O)OC3=O)C(=O)OC2=O` [byssochlamic acid], the “nucOX (composite Z-score)” value in the experiment with nuOXPHOS transcripts (setting [3]) is on record as −0.069. Further, the “cyt c (composite Z-score)” value in the experiment with cytochrome c (setting [3]) is listed as −1.053. Moreover, in the experiment on reactive oxygen species (setting [3]), the “ROS (composite Z-score)” value turned out to be 0.253. In experiment [1] (setting [3]), the “ΔΨm (composite Z-score)” value is listed as −0.092. Also, the “MTT (composite Z-score)” value in experiment [2] (setting [3]) is reported as −0.488. Also, the “GE-HTS (composite Z-score)” value in the experiment with OXPHOS gene expression (setting [3]) was −0.230. For the same molecule, the “Viability (composite Z-score)” value with C2C12 myotubes (setting [3]) is given as −0.241. Further, the “mitoOX (composite Z-score)” value in the experiment on mtOXPHOS transcripts (setting [3]) is recorded as −0.458.

As for `COc1cc(C=CC=O)cc(OC)c1OC` [3,4,5-trimethoxycinnamaldehyde], the nucOX in the experiment with nuOXPHOS transcripts (setting [4]) is listed as −0.724. Also, the cyt c in the experiment with cytochrome c (setting [4]) is listed as −0.808. This molecule came in with an ROS with reactive oxygen species (setting [4]) of −0.228. The molecule also came in with a ΔΨm in experiment [1] (setting [4]) of 0.647. In addition, the MTT in experiment [2] (setting [4]) is 1.043. In the experiment on OXPHOS gene expression (setting [4]), this molecule gave a GE-HTS of −0.523. The Viability in the experiment on C2C12 myotubes (setting [4]) was 1.061. In the experiment on mtOXPHOS transcripts (setting [4]), this molecule gave a mitoOX of 0.025.

In the experiment on nuOXPHOS transcripts (setting [5]), `O=C(Oc1cc(O)cc2c1C[C@@H](OC(=O)c1cc(O)c(O)c(O)c1)[C@@H](c1cc(O)c(O)c(O)c1)O2)c1cc(O)c(O)c(O)c1` [epigallocatechin 3,5-digallate] displayed a nucOX of −1.625. This molecule also yielded a cyt c in the experiment on cytochrome c (setting [5]) of 1.040. This molecule also returned an ROS in the experiment on reactive oxygen species (setting [5]) of 0.118. In experiment [1] (setting [5]), the ΔΨm was −2.135. In experiment [2] (setting [5]), this molecule showed an MTT of −1.667. This molecule also gave a GE-HTS with OXPHOS gene expression (setting [5]) of −1.581. Also, the Viability in the experiment on C2C12 myotubes (setting [5]) is 0.969. The same molecule gave a mitoOX in the experiment on mtOXPHOS transcripts (setting [5]) of −1.133.

Turning to `C[C@]12CCC(=O)C=C1CC[C@@H]1[C@@H]2C(=O)C[C@@]2(C)[C@H]1CC[C@]2(O)C(=O)CO` [cortisone], in the experiment on nuOXPHOS transcripts (setting [4]), the nucOX is listed as −0.165. For the same molecule, in the experiment with cytochrome c (setting [4]), the cyt c was −0.078. The molecule further gave an ROS in the experiment on reactive oxygen species (setting [4]) of 0.527. The same molecule yielded a ΔΨm in experiment [1] (setting [4]) of −0.232. Moreover, the MTT in experiment [2] (setting [4]) is on record as −0.146. In addition, the GE-HTS in the experiment on OXPHOS gene expression (setting [4]) is reported as −0.428. This molecule also yielded a Viability in the experiment with C2C12 myotubes (setting [4]) of 0.644. For the same molecule, the mitoOX in the experiment with mtOXPHOS transcripts (setting [4]) is −0.830.

Consider `COC(=O)CC[C@@H](C)[C@H]1CC[C@H]2[C@@H]3[C@H](O)C[C@@H]4C[C@H](O)CC[C@]4(C)[C@H]3C[C@H](O)[C@]12C` [cholic acid, methyl ester], for which the nucOX with nuOXPHOS transcripts (setting [5]) was −0.852. The cyt c in the experiment with cytochrome c (setting [5]) is given as 0.018. Further, the ROS in the experiment with reactive oxygen species (setting [5]) is recorded as 0.295. In addition, the ΔΨm in experiment [1] (setting [5]) was determined as 0.065. Besides, in experiment [2] (setting [5]), the MTT was −1.021. In the experiment with OXPHOS gene expression (setting [5]), this molecule registered a GE-HTS of −0.751. The same molecule returned a Viability with C2C12 myotubes (setting [5]) of −0.383. Further, the mitoOX with mtOXPHOS transcripts (setting [5]) is −0.394.

`NC[C@H]1O[C@H](O[C@H]2[C@H](O)[C@@H](O[C@H]3O[C@H](CO)[C@@H](O)[C@H](N)[C@H]3O)[C@H](N)C[C@@H]2N)[C@H](O)[C@@H](O)[C@@H]1O` [kanamycin A]: in the experiment on nuOXPHOS transcripts (setting [6]), the nucOX is −0.218. Besides, the cyt c in the experiment with cytochrome c (setting [6]) is −0.131. In the experiment with reactive oxygen species (setting [6]), this molecule registered an ROS of 1.383. In experiment [1] (setting [6]), the ΔΨm is −0.812. The same molecule displayed an MTT in experiment [2] (setting [6]) of −1.149. This molecule showed a GE-HTS with OXPHOS gene expression (setting [6]) of −0.270. Moreover, in the experiment with C2C12 myotubes (setting [6]), the Viability is listed as −1.015. Besides, the mitoOX in the experiment with mtOXPHOS transcripts (setting [6]) is −0.323.

Turning to `CC(=O)OCC(=O)[C@@]1(O)CCC2C3CC[C@@H]4C[C@H](OC(C)=O)CC[C@]4(C)C3C(=O)C[C@@]21C` (some centres unmarked) [tetrahydrocortisone-3,21-diacetate], the nucOX in the experiment with nuOXPHOS transcripts (setting [4]) was −0.558. Also, in the experiment on cytochrome c (setting [4]), the cyt c is recorded as −0.397. In the experiment on reactive oxygen species (setting [4]), this molecule returned an ROS of 0.456. The ΔΨm in experiment [1] (setting [4]) was found to be 0.074. In experiment [2] (setting [4]), this molecule gave an MTT of −0.664. This molecule also had a GE-HTS in the experiment with OXPHOS gene expression (setting [4]) of −0.320. Besides, the Viability in the experiment with C2C12 myotubes (setting [4]) was −0.030. For the same molecule, the mitoOX with mtOXPHOS transcripts (setting [4]) turned out to be 0.269.

In the experiment on nuOXPHOS transcripts, `C1COC(NC(C2CC2)C2CC2)=N1` [rilmenidine] displayed a nucOX of 0.319. Besides, the cyt c with cytochrome c is reported as −0.042. In addition, the ROS in the experiment with reactive oxygen species is recorded as 0.340. The molecule also showed a ΔΨm in experiment [1] of −0.589. In experiment [2], this molecule showed an MTT of 0.082. In the experiment on OXPHOS gene expression, this molecule displayed a GE-HTS of 0.123. For the same molecule, the Viability in the experiment with C2C12 myotubes is reported as 0.245. Also, in the experiment on mtOXPHOS transcripts, the mitoOX was −0.313.

In the experiment on nuOXPHOS transcripts (setting [4]), `CC1(O)CC2C(CC1O)C2(C)C` (centres unmarked) [3,4-dihydroxycarane] displayed a nucOX of −0.951. The molecule further had a cyt c in the experiment on cytochrome c (setting [4]) of 0.475. The ROS with reactive oxygen species (setting [4]) turned out to be 0.697. The molecule further displayed a ΔΨm in experiment [1] (setting [4]) of −0.659. In experiment [2] (setting [4]), this molecule displayed an MTT of −0.697. In the experiment on OXPHOS gene expression (setting [4]), this molecule came in with a GE-HTS of −1.265. In the experiment on C2C12 myotubes (setting [4]), this molecule came in with a Viability of 0.448. Moreover, the mitoOX in the experiment with mtOXPHOS transcripts (setting [4]) is reported as −1.620.

For the molecule `COc1ccc(-c2cc(=O)c3ccc(OC)cc3o2)cc1` [4,7-dimethoxyflavone], the nucOX in the experiment with nuOXPHOS transcripts (setting [5]) stood at 1.526. The molecule further displayed a cyt c with cytochrome c (setting [5]) of 0.031. In addition, the ROS with reactive oxygen species (setting [5]) is given as 1.067. Further, the ΔΨm in experiment [1] (setting [5]) is reported as −0.795. The same molecule gave an MTT in experiment [2] (setting [5]) of −0.472. Also, in the experiment on OXPHOS gene expression (setting [5]), the GE-HTS amounted to 1.306. In the experiment with C2C12 myotubes (setting [5]), the Viability is reported as −0.067. In the experiment with mtOXPHOS transcripts (setting [5]), the mitoOX is on record as 0.539.
